Experimental findings from patent US20250042894A1, “PROTEIN TYROSINE PHOSPHATASE INHIBITORS AND METHODS OF USE THEREOF” (Calico Life Sciences LLC, priority 2021, published 2025) are described below.

Experiment [1] has as its target T1, His tagged PTPN2 (TC45) protein (Homo sapiens, UniProt P17706).
T1 construct: His; made in house
T1 sequence (P17706 1-387 isoform P17706-2): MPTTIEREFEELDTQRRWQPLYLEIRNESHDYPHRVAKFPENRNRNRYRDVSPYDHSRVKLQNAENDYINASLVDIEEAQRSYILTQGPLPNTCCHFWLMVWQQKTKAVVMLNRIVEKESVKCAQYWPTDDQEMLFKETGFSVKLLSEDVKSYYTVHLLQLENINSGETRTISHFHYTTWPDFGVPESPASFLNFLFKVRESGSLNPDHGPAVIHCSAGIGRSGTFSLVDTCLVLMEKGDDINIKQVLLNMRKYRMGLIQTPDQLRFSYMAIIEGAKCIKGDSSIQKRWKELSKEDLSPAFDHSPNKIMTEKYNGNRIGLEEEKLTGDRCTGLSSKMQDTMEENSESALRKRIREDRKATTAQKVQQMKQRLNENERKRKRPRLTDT
The experiment in a line: Mobility Shift Assay (MSA) for PTPN2 inhibitors. In kind it is biochemical. Conditions: for IC50: enzyme 0.5 nM, substrate 2 μM, 10 minutes preincubation at room temperature. How it is done:
Example 43: Mobility Shift Assay (MSA) Used to Determine Potency of PTPN2 Inhibitors
Compound activity was determined using in house His tagged PTPN2 (TC45) protein (SEQ ID NO: 1) in an in vitro enzymatic reaction. The enzymatic assay used to determine activity was a mobility shift assay using a LabChip EZ Reader by Caliper Life Sciences. The enzymatic reaction was carried out in assay buffer (50 mM HEPES pH 7.5, 1 mM EGTA, 10 mM EDTA, 0.01% Tween® 20, and 2 mM DTT). The compounds were dispensed on a white 384 well ProxiPlate™ (PerkinElmer Catalog #6008289) plate using the Labcyte Echo at varying concentrations (12 point, 1:3 dilution). The enzyme (at 0.5 nM) was incubated with compound for 10 minutes at room temperature. Thereafter, the substrate (phosphorylated insulin receptor probe sequence: ((OG488)-(NH—CH2—CH2—O—CH2—CH2—O—CH2—CO)-T-R-D-I—(PY)-E-T-D-Y—Y—R—K—K—NH2) (SEQ ID NO: 2) was added at 2 μM to the plates and incubated for another 10 minutes at room temperature. Finally, a quench solution (water and 4-bromo-3-(2-oxo-2-propoxyethoxy)-5-(3-{[1-(phenylmethanesulfonyl)piperidin-4-yl]amino}phenyl)thiophene-2-carboxylic acid) was added to the plates, which were then run on the EZ Reader (excitation 488 nm, emission 530 nm) to measure % conversion (the amount of phosphorylated substrate which was de-phosphorylated by PTPN2). […] The % inhibition was then used to calculate the IC50 values.

Experiment [2] has as its target T2, His tagged full-length PTPN1 protein (Homo sapiens, UniProt P18031).
T2 construct: His; made in house
T2 sequence (P18031 1-435): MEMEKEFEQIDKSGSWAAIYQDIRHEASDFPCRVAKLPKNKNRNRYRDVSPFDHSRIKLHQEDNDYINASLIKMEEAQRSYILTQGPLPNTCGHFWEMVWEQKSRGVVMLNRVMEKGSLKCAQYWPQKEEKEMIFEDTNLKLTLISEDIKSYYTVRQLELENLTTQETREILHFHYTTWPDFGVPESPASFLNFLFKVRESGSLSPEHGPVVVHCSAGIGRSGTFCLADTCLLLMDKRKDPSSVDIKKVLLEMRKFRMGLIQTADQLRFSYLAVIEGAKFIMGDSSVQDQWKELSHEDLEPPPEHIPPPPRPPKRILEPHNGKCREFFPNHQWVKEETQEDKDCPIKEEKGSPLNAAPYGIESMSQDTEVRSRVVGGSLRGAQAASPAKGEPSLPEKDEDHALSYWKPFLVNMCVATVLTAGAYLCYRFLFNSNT
Nature of the experiment: Mobility Shift Assay (MSA) for PTPN1 inhibitors. In kind it is biochemical. Conditions: enzyme 0.5 nM, substrate 2 μM, 10 minutes preincubation at room temperature. How it is done: Example 44: Mobility Shift Assay (MSA) Used to Determine Potency of PTPN1 Inhibitors
Compound activity was determined using in house His tagged full-length PTPN1 protein (SEQ ID NO: 3) in an in vitro enzymatic reaction. The enzymatic assay used to determine activity is a mobility shift assay using a LabChip EZ Reader by Caliper Life Sciences. The enzymatic reaction was carried out in assay buffer (50 mM HEPES pH 7.5, 1 mM EGTA, 10 mM EDTA, 0.010% Tween® 20, and 2 mM DTT). The compounds were dispensed on a white 384 well ProxiPlate™ (PerkinElmer Cat #6008289) plate using a Labcyte Echo® liquid handler at varying concentrations (12 point, 1:3 dilution). The enzyme (at 0.5 nM) was incubated with compound for 10 minutes at room temperature. Thereafter, the substrate (phosphorylated insulin receptor probe sequence: ((OG488)-(NH—CH2—CH2—O—CH2—CH2—O—CH2—CO)-T-R-D-I—(PY)-E-T-D-Y—Y—R—K—K—NH2) (SEQ ID NO: 2) was added at 2 μM to the plates and incubated for another 10 minutes at room temperature. Finally, a quench solution (water and 4-bromo-3-(2-oxo-2-propoxyethoxy)-5-(3-{[1-(phenylmethanesulfonyl)piperidin-4-yl]amino}phenyl)thiophene-2-carboxylic acid) was added to the plates, which were then run on the EZ Reader (excitation 488 nm, emission 530 nm) to measure % conversion (the amount of phosphorylated substrate which was de-phosphorylated by PTPN1). […] The % inhibition was then used to calculate the IC50 values.

Experiment [3] has as its system IFNγ-induced STAT1 phosphorylation (pSTAT1) in B16F10 cells. The experiment in a line: B16F10 Phospho-STAT1 HTRF proximal pharmacodynamic (PD) assay. In kind it is cell-based, murine. Conditions: for EC50: B16-F10. How it is done:
Example 45: B16F10 (Murine Melanoma Cells) Phospho-STAT1 HTRF Proximal Pharmacodynamic (PD) Assay
B16F10 cells were grown and maintained in high glucose DMEM (Gibco, Catalog #11965-092, Dun Laoghaire Co Dublin) supplemented with 10% fetal bovine serum (Gibco, Catalog #10082-139, Dun Laoghaire Co Dublin). The cells were pelleted and resuspended in high glucose DMEM without phenol red (Gibco, Catalog #11054-020, Dun Laoghaire Co Dublin), supplemented with 10% fetal bovine serum and plated in a 384 well Corning plate (product #3765, Corning, NY) at 11,000 cells per well in a volume of 20 μL. The cells were dosed with the compounds of interest using an Echo Liquid Handler (Beckman Coulter, Brea, CA) at 50 μM top dose with 3-fold dilutions down to 0.002679 μM for a 10-point dose response. The plate was incubated for 3 hours at 37° C. and subsequently treated with recombinant mouse IFNγ (R&D Systems, Catalog #485-MI, Minneapolis, MN; 100 nM final concentration) for 10 minutes at 37° C. to induce STAT1 phosphorylation followed by 3.3 μM staurosporine treatment for 1 hour at 37° C. to terminate phosphorylation. Media was then aspirated and 20 μL of 1× lysis buffer/blocking reagent (Cisbio Phospho-STAT1 kit, part #63ADK026PEH, Bedford, MA) was added. The plate was placed on a plate shaker for 30 minutes at room temperature, sealed, and stored at −80° C. until needed. To thaw, the plate was placed on shaker at room temperature until completely thawed while the antibody master mix was made (1:40 Phospho-STAT1 Eu Cryptate antibody, 1:40 Phospho-STAT1 d2 antibody, with the detection buffer; Cisbio Phospho-STAT1 kit, part #63ADK026PEH, Bedford, MA). The antibody master mix was then dispensed at 4 μL per well into a 384 ProxiPlate Plus (PerkinElmer, part #6008289, Waltham, MA) and 16 μL of lysate was added from the Corning plate to the Proxiplate using a VIAFLO 384 (INTEGRA). The plate was incubated for 3 hours at room temperature and read on an EnVision® (Perkin Elmer) plate reader with laser excitation at 335 nm and emission at 665 nm. Dotmatics Studies (Bishop's Stortford, UK) was utilized to generate all dose-response curves and calculate EC50s and are shown in Table 2.
Background: TR-FRET usually uses a lanthanide donor and a delayed reading to cut background.

The mark [4] stands for this setting: Table 2, 3 hours compound, then mouse IFNγ 100 nM 10 minutes, top dose 50 μM, read-out: B16F10 IFNγ Induced pSTAT1 EC50.

Where two headings read alike, the source gives them in different places.

Take `O=C1CN(c2c(O)cc3c(c2F)C[C@H](NCCC2(CO)CCC2)CS3)S(=O)(=O)N1` [Compound 104, 5-[(3S)-5-fluoro-7-hydroxy-3-({2-[1-(hydroxymethyl)cyclobutyl]ethyl}amino)-3,4-dihydro-2H-1-benzothiopyran-6-yl]-1λ^6,2,5-thiadiazolidine-1,1,3-trione]: the IC50 in experiment [1] was less than 10 nM; in experiment [2], 10 to 100 nM. Moreover, the concentration giving a half-maximal response (EC50) in experiment [3] (setting [4]) came to 3350 nM.
As to `O=C1CN(c2c(O)cc3c(c2F)C[C@H](NCCC2(CO)CCCC2)CS3)S(=O)(=O)N1` [Compound 105, 5-[(3S)-5-fluoro-7-hydroxy-3-({2-[1-(hydroxymethyl)cyclopentyl]ethyl}amino)-3,4-dihydro-2H-1-benzothiopyran-6-yl]-1λ^6,2,5-thiadiazolidine-1,1,3-trione], the 50% inhibitory concentration (IC50) in experiment [1] is less than 10 nM; in experiment [2], 10 to 100 nM. Besides, the EC50 in experiment [3] (setting [4]) was found to be 4810 nM.
For `CC(C)(CO)CCN[C@@H]1CSc2cc(O)c(N3CC(=O)NS3(=O)=O)c(F)c2C1` [Compound 106, 5-{(3S)-5-fluoro-7-hydroxy-3-[(4-hydroxy-3,3-dimethylbutyl)amino]-3,4-dihydro-2H-1-benzothiopyran-6-yl}-1λ^6,2,5-thiadiazolidine-1,1,3-trione], in that order: less than 10 nM, 10 to 100 nM and 11900 nM.
On to `CCCN[C@@H]1CSc2cc(O)c(N3CC(=O)NS3(=O)=O)c(F)c2C1` [Compound 107, 5-[(3S)-5-fluoro-7-hydroxy-3-(propylamino)-3,4-dihydro-2H-1-benzothiopyran-6-yl]-1λ^6,2,5-thiadiazolidine-1,1,3-trione], for which the 50% inhibitory concentration (IC50) in experiment [1] and in experiment [2] was 10 to 100 nM throughout. The EC50 in experiment [3] (setting [4]) was 3960 nM.
Consider `CCC(C)CCN[C@@H]1CSc2cc(O)c(N3CC(=O)NS3(=O)=O)c(F)c2C1` (stereo partly drawn) [Compound 108, 5-{(3S)-5-fluoro-7-hydroxy-3-[(3-methylpentyl)amino]-3,4-dihydro-2H-1-benzothiopyran-6-yl}-1λ^6,2,5-thiadiazolidine-1,1,3-trione], for which the 50% inhibitory concentration (IC50) in experiment [1] and in experiment [2] was less than 10 nM each time. In addition, the concentration for a half-maximal effect (EC50) in experiment [3] (setting [4]) worked out at 1760 nM.
In the case of `O=C1CN(c2c(O)cc3c(c2F)C[C@H](NCCC2CCOCC2)CS3)S(=O)(=O)N1` [Compound 109, 5-[(3S)-5-fluoro-7-hydroxy-3-{[2-(oxan-4-yl)ethyl]amino}-3,4-dihydro-2H-1-benzothiopyran-6-yl]-1λ^6,2,5-thiadiazolidine-1,1,3-trione], in experiment [1] (Table 3, PTPN2 MSA IC50 of chromane comparator over thiochromane), the “Thiochromane x-fold>potency biochemical” value was determined as 2.0. Further, the IC50 in experiment [1] was less than 10 nM; in experiment [2], 10 to 100 nM. Further, the 50% effective concentration (EC50) in experiment [3] (setting [4]) is 6030 nM; in experiment [3] (Mus musculus, Table 3, B16F10 cells, IFNγ-induced, thiochromanes (X = S) and chromane comparators (X = O), read-out: pSTAT1 EC50), 6030 nM. The “Thiochromane x-fold>potency cellular” value in experiment [3] (Table 3, pSTAT1 EC50 of chromane comparator over thiochromane) is 5.3.
With `O=C1CN(c2c(O)cc3c(c2F)C[C@H](NCC2CCOCC2)CS3)S(=O)(=O)N1` [Compound 110, 5-[(3S)-5-fluoro-7-hydroxy-3-{[(oxan-4-yl)methyl]amino}-3,4-dihydro-2H-1-benzothiopyran-6-yl]-1λ^6,2,5-thiadiazolidine-1,1,3-trione], the IC50 in experiment [1] and in experiment [2] was 10 to 100 nM throughout. In addition, the half-maximal effective concentration (EC50) in experiment [3] (setting [4]) turned out to be 6990 nM.
As to `O=C1CN(c2c(O)cc3c(c2F)C[C@H](NCC2CC2)CS3)S(=O)(=O)N1` [Compound 111, 5-{(3S)-3-[(cyclopropylmethyl)amino]-5-fluoro-7-hydroxy-3,4-dihydro-2H-1-benzothiopyran-6-yl}-1λ^6,2,5-thiadiazolidine-1,1,3-trione], the IC50 in experiment [1] and in experiment [2] was 10 to 100 nM each time. In experiment [3] (setting [4]), the EC50 came to 7980 nM.
Turning to `CCCCN[C@@H]1CSc2cc(O)c(N3CC(=O)NS3(=O)=O)c(F)c2C1` [Compound 112, 5-[(3S)-3-(butylamino)-5-fluoro-7-hydroxy-3,4-dihydro-2H-1-benzothiopyran-6-yl]-1λ^6,2,5-thiadiazolidine-1,1,3-trione], the IC50 in experiment [1] is less than 10 nM; in experiment [2], 10 to 100 nM. Besides, in experiment [3] (setting [4]), the EC50 was found to be 1210 nM.
For `CC(C)CN[C@@H]1CSc2cc(O)c(N3CC(=O)NS3(=O)=O)c(F)c2C1` [Compound 113, 5-{(3S)-5-fluoro-7-hydroxy-3-[(2-methylpropyl)amino]-3,4-dihydro-2H-1-benzothiopyran-6-yl}-1λ^6,2,5-thiadiazolidine-1,1,3-trione], in that order: 10 to 100 nM, 10 to 100 nM and 2030 nM.

As a reminder, the IC50 is the concentration that inhibits the measured activity by half. For orientation: EC50 means the concentration that produces a half-maximal response.
